Measured values taken from ChEMBL document CHEMBL1201862, “PubChem BioAssay data set” (2004).
Values joined by “and” are separate entries in the source; they are usually repeats but may differ in a detail not shown here. Identical values can stand only once. Active and inactive are the calls of the source.

Legend:
Vero [1] = assay: cells; type: functional, cell-based; conditions: Chlorocebus sabaeus
Vero [2] = assay: cells; type: functional; conditions: Chlorocebus sabaeus
[3] = target: Dual specificity protein kinase CLK1 (Homo sapiens, UniProt P49759); assay: inhibition of human CLK1 activity – biochemical, cherry-picked samples, selectivity assay for Dyrk1A inhibitor project, dose response (AID 588811)
[4] = NIH-3T3 fibroblast cytotoxicity, dose response, cytotoxicity control, cell-based, fluorescence, Alamar Blue, secondary assay (AID 2327); type: functional;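 note: NIH-3T3 mouse fibroblasts cultured with fluconazole at 8 µg/mL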
[5] = fluconazole-exposed Candida albicans growth modulators – fluorescence, retest, confirmation (AID 2467); type: functional, cell-based
[6] = target: Serine/threonine-protein phosphatase (Candida dubliniensis (strain CD36 / CBS 7987 / NCPF 3949 / NRRLY-17841) (Yeast), UniProt B9W6M3); assay: blockers of CaCl2-induced CDRE-lacZ signaling – S. cerevisiae, luminescence, secondary, dose response (AID 2388); type: functional, cell-based;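 note: yeast reporter cells carrying a calcineurin-responsive lacZ construct stimulated with calcium chloride; luminescent beta-galactosidase reporter signal in whole cells rather than isolated phosphatase activity; potency for inhibition where a drop in reporter signal means calcineurin blockade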
[7] = target: ATP-dependent molecular chaperone HSP82 (Candida albicans (strain WO-1) (Yeast), UniProt C4YTQ8); assay: steroid-induced GRE reporter decrease in yeast – S. cerevisiae, luminescence, Hsp90 inhibitor project, dose response (AID 2400); type: functional, cell-based;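 note: beta-galactosidase luminescence from glucocorticoid response element reporter as proxy for Hsp90 function; inhibitor potency where signal loss means Hsp90 inhibition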
Escherichia coli [8] = assay: microbe, parasite or virus in culture
Escherichia coli [9] = assay: microbe, parasite or virus in culture; remark: listed apart in the source
[10] = luciferase reporter signal suppression in cells – H4 neuroglioma cells, luminescence, dose response (AID 1990); type: functional, cell-based
[11] = luciferase reporter signal reduction – luminescence, H4-C neuroglioblastoma cells, dose response (AID 2458); type: functional, cell-based;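 note: H4 neuroglioblastoma cells stably carrying a luciferase reporter gene fusion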
[12] = target: Luciferin 4-monooxygenase (Photinus pyralis, UniProt P08659); assay: Counter Screen for Luciferase-based Assay Positives. [Related pubchem assays: 620, 618, 411 ]
[13] = target: Glyceraldehyde-3-phosphate dehydrogenase (Homo sapiens, UniProt P04406)
cells = type: functional, cell-based
[14] = Luminescence Cell-Based Dose Response HTS to Identify Inhibitors of 5'UTR Stem-Loop Driven Prion Protein mRNA Translation in H4 Neuroglioblastoma Cells. [Related pubchem assays: 1827 (Project Summary), 1813 (Primary HTS)]; type: functional
[15] = alpha-synuclein stem-loop luciferase translation blockers – H4 neuroglioma cells, luminescence, confirmation (AID 1988); type: functional, cell-based
HT-1080 = assay: HT1080 cell viability loss – fluorescence readout (AID 620); type: functional, cell-based; conditions: Homo sapiens
[16] = alpha-synuclein stem-loop translation blockers – luminescence, H4 neuroglioblastoma cells, dose confirmation, confirmation (AID 2454); type: functional, cell-based;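 note: H4 neuroglioblastoma cells carrying an alpha-synuclein 5'UTR luciferase reporter; potency for inhibition of the luciferase signal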
[17] = target: Voltage-dependent T-type calcium channel subunit alpha-1H (Homo sapiens, UniProt O95180); type: functional;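 note: channel activity triggered by adding a high calcium stimulation buffer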
Jurkat [18] = assay: blockers of NF-kB activation in T cells – Jurkat, luciferase reporter, luminescence, B- and T-cell, dose response (AID 489004); type: functional, cell-based; conditions: Homo sapiens;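 note: NF-kB luciferase reporter Jurkat cells stimulated with PMA plus ionomycin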
[19] = HEK-293T viability loss, compound-treated – cell-based, uHTS hits, cytotoxicity control for B/T-cell NF-kB inhibitor project, dose response (AID 489019); type: functional;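 note: IC50 reflects cytotoxicity as loss of cell viability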
[20] = blockers of HIV-1 envelope-mediated cell-cell fusion – cherry-pick, dose response (AID 652057); type: functional, cell-based
[21] = blockers of HIV-1 ZM109 envelope-driven cell-cell fusion – HeLa effector, CEM target cells, luciferase, cherry-pick, dose response (AID 652058); type: functional, cell-based;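 note: luciferase signal from HIV-1 Env mediated cell-cell fusion of effector and target cells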
[22] = off-target signal loss in HeLa-CEM21 co-culture – HeLa F-luc CTL cells, cherry-picked, counter-screen for HIV-1 Env fusion inhibitor project, dose response (AID 652040); type: functional, cell-based;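 note: potency for signal decrease marking cytotoxic or nonspecific inhibition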
[23] = HIV-1 AD8 envelope cell-cell fusion blockers – cherry-pick, dose response (AID 652062); type: functional, cell-based;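 note: luciferase signal from cell-cell fusion driven by HIV-1 clade B AD8 Env; potency is for inhibitors of fusion seen as a drop in luminescence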
HEK293 [24] = assay: HEK293T cell viability loss, resazurin readout – resazurin fluorescence, cytotoxicity control for NF-kB activator project, SAR follow-up (AID 493251); type: functional, cell-based; conditions: Homo sapiens
Jurkat [25] = assay: SAR Analysis of small molecule inhibitors of T-cell specific antigen receptor-induced NF-kB activation in a Jurkat cell line using a luminescence assay - Set 2. [Related pubchem assays (depositor defined):AID435003, AID435012, AID465]; type: functional, cell-based; conditions: Homo sapiens
HEK293 [26] = assay: SAR Analysis of small molecule inhibitors of T-cell specific antigen receptor-induced NF-kB activation in a HEK-293T cell line using a luminescence assay - Set 2. [Related pubchem assays (depositor defined):AID435003, AID435012, AID489026]; type: functional, cell-based; conditions: Homo sapiens
HeLa = assay: viability loss in HeLa cells – cell-based, 24 h, cherry-picked samples, cytotoxicity control, dose response (AID 504726); type: functional; conditions: Homo sapiens;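 note: potency for cytotoxicity as loss of luminescence signal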
ORF 73 = ORF 73 (Human herpesvirus 8, UniProt O40947); assay: KSHV LANA DNA-binding disruption – biochemical, fluorescence polarization, cherry-picked samples, dose response (AID 504725); set-up: species or system Human gammaherpesvirus 8;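 note: fluorescence polarization of a labeled DNA duplex reporting LANA DNA binding; potency is for inhibitors that block LANA binding to the DNA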
[27] = target: Eukaryotic translation initiation factor 4E (Mus musculus, UniProt P63073); assay: blockers of eIF4G binding by eIF4E – biochemical, TR-FRET, dose response (AID 855); type: functional;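 note: potency for disrupting eIF4E binding to eIF4GI seen as loss of FRET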
Keap1/Nrf2 = Keap1/Nrf2 (Homo sapiens, UniProt Q14145); assay: disruptors of Keap1 binding to Nrf2 peptide – biochemical, fluorescence polarization, cherry-picked samples, dose response (AID 588683)
[28] = target: T1, Corticotropin-releasing factor receptor 2/Corticotropin-releasing factor-binding protein (Homo sapiens, UniProt P24387+Q13324); assay: activators of CRF receptor 2 with binding protein – uHTS hits, confirmation (AID 602473); type: functional; conditions: read-out: EC50_Mean
T1 sequence (Q13324 whole entry): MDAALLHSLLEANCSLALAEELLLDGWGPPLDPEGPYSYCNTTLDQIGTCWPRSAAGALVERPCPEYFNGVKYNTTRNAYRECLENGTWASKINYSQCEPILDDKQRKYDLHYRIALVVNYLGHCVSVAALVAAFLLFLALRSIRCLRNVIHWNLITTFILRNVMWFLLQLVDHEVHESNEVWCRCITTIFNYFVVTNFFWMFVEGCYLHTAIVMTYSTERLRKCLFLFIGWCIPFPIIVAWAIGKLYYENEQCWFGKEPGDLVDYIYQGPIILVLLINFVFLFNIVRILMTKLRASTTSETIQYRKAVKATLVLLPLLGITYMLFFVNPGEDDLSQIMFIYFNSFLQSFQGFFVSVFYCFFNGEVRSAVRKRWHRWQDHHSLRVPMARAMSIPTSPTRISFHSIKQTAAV
T1 sequence (P24387 whole entry): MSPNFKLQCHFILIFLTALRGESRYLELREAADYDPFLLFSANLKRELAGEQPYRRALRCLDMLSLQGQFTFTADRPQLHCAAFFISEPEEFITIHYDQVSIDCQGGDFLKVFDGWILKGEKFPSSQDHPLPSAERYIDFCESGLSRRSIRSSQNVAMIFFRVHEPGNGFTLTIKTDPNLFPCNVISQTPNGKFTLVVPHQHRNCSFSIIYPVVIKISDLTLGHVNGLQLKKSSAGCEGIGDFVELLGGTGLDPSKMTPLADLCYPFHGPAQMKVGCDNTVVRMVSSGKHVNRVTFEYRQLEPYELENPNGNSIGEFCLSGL

[29] = Luminescence Cell-Based Dose Retest to Confirm Inhibitors of Cancer Stem Cells. [Related pubchem assays (depositor defined):AID2717, AID2721]; type: functional; conditions: Homo sapiens
Paired box protein Pax-8 = Paired box protein Pax-8 (Homo sapiens, UniProt Q06710); assay: PAX8 transcriptional activity inhibition in RMG-I – RMG-I cells, luciferase, cherry-pick, dose response (AID 687027); type: functional, cell-based;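 note: luciferase reporter driven by Pax8 target thyroperoxidase promoter measured by SteadyGlo luminescence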
[30] = reduction of Shn3 3'UTR-driven luciferase in osteoblasts – cell-based, Clone20 osteoblasts, firefly luciferase, cherry-picked, dose response (AID 624132); type: functional;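 note: firefly luciferase luminescence from reporter carrying the Shn3 3'UTR in osteoblasts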
[31] = loss of viability in HepG2 cells – cell-based, CellTiter-Glo, cherry-picked, cytotoxicity control for Shn3 inhibitor project, dose response (AID 624134); type: functional
[32] = non-specific 3'UTR reporter inhibition in Clone20-Shn3RL – cell-based, Renilla luciferase, cherry-picked, counter-screen for Shn3 inhibitor project, dose response (AID 624133); type: functional
[33] = Fluorescence-based cell-based high throughput dose response assay for inhibitors of the interaction of nucleotide-binding oligomerization domain containing 2 (NOD2) and the receptor-interacting serine-threonine kinase 2 (RIPK2).; type: functional; conditions: Homo sapiens
Beta Lactamase = Beta Lactamase (Pseudomonas aeruginosa, UniProt Q932Y6); assay: BLA reporter interference, concentration series – BLA reporter cells, FRET fluorescence, artefact control for NOD2-RIPK2 interaction inhibitor project, dose response (AID 651552); type: functional, cell-based
Chain of Beta Lactamase (Q932Y6 whole entry): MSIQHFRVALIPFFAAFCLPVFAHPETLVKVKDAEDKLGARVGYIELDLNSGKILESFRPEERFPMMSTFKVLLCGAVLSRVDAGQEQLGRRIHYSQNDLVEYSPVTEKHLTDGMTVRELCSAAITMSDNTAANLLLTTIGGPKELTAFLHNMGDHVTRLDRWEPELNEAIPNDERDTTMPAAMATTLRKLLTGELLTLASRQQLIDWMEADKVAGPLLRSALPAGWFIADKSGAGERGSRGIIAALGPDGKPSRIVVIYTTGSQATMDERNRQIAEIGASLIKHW

Chain of Keap1/Nrf2 (Q16236 whole entry): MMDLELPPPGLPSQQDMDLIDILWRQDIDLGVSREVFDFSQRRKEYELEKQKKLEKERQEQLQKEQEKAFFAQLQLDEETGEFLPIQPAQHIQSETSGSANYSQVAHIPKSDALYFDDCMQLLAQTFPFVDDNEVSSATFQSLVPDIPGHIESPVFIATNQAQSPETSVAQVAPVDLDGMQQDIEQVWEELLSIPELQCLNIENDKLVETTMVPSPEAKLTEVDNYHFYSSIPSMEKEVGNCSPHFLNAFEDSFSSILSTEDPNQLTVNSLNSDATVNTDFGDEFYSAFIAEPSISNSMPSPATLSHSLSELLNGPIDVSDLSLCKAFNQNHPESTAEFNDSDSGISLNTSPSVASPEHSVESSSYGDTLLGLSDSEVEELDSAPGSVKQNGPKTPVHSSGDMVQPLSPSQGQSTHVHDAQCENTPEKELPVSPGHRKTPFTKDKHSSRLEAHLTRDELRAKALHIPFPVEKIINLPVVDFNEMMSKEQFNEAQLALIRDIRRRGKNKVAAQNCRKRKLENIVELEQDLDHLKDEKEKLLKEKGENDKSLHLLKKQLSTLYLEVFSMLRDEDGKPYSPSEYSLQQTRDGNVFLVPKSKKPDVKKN
Chain of Keap1/Nrf2 (Q14145 whole entry): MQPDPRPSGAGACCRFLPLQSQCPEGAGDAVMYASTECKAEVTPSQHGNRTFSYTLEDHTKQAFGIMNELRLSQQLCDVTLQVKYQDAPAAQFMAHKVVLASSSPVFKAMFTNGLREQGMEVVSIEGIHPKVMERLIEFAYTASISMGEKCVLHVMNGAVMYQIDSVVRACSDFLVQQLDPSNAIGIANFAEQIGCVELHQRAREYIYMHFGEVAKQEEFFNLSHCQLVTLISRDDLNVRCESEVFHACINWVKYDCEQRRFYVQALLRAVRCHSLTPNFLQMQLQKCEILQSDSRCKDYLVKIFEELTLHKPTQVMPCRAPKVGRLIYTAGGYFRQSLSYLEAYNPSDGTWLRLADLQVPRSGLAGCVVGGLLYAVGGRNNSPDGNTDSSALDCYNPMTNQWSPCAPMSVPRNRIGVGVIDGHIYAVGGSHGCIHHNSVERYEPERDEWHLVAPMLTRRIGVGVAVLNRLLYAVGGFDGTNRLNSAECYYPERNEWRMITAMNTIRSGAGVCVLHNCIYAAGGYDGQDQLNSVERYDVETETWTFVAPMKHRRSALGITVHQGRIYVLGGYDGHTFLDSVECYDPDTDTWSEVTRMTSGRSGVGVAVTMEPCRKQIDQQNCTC
Chain of Dual specificity protein kinase CLK1 (P49759 whole entry): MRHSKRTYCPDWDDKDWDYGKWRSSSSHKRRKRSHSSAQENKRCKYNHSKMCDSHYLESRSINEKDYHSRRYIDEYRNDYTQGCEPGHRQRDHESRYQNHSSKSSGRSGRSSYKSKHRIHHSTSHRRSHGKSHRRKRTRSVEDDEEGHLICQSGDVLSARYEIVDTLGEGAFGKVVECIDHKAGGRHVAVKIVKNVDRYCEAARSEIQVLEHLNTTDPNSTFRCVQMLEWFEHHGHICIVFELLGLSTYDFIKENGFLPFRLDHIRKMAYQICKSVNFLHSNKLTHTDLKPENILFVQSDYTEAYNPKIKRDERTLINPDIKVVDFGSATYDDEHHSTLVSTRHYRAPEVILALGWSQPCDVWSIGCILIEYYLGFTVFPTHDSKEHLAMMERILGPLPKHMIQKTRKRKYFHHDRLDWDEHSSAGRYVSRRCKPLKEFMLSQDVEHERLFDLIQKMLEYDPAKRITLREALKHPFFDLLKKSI
Chain of ORF 73 (O40947 whole entry): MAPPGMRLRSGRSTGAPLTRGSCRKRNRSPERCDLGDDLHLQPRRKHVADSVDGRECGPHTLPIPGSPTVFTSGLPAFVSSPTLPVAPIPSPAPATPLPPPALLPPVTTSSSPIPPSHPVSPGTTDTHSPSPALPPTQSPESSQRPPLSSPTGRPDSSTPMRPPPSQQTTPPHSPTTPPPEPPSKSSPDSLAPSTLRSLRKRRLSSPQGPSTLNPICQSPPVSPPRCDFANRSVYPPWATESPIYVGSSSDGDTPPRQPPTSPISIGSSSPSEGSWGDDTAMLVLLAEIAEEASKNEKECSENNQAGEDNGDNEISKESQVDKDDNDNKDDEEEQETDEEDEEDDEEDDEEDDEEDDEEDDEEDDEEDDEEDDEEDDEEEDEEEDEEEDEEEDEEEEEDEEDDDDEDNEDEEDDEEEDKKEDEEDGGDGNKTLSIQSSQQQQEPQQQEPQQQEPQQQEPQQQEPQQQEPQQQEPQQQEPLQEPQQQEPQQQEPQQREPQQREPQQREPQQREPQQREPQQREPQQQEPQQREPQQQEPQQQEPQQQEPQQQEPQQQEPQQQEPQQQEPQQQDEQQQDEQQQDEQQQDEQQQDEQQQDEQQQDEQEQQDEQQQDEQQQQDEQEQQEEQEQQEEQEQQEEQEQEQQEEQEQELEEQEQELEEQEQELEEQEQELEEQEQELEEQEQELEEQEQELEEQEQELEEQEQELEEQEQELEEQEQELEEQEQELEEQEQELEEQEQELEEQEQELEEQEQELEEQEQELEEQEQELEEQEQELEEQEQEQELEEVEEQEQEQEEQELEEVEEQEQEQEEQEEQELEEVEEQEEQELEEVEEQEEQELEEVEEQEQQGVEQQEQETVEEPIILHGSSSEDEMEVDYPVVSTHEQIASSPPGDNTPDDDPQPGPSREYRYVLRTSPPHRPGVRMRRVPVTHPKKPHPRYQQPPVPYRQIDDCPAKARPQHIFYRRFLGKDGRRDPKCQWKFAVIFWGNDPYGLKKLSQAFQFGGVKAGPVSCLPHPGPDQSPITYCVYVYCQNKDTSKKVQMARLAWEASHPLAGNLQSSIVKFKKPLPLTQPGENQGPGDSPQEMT
Chain of Paired box protein Pax-8 (Q06710 whole entry): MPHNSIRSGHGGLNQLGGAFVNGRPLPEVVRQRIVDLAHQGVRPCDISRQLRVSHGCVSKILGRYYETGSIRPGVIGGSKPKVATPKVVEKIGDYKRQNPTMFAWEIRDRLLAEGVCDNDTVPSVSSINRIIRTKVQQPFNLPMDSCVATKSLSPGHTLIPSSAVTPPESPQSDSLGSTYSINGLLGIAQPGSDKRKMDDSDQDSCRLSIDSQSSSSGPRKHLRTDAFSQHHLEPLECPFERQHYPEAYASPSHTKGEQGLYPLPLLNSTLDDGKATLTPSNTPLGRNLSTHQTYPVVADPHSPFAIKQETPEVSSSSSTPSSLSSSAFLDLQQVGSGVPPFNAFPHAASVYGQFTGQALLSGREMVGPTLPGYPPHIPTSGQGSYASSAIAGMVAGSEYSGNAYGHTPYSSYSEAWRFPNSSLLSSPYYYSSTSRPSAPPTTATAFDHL
Chain of Eukaryotic translation initiation factor 4E (P63073 whole entry): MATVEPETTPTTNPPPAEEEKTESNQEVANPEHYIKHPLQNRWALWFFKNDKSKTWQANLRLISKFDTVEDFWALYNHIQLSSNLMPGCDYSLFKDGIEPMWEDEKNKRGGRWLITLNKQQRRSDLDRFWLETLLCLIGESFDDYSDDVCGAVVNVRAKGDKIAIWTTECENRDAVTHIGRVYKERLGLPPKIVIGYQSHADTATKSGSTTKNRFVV
Chain of ATP-dependent molecular chaperone HSP82 (C4YTQ8 whole entry): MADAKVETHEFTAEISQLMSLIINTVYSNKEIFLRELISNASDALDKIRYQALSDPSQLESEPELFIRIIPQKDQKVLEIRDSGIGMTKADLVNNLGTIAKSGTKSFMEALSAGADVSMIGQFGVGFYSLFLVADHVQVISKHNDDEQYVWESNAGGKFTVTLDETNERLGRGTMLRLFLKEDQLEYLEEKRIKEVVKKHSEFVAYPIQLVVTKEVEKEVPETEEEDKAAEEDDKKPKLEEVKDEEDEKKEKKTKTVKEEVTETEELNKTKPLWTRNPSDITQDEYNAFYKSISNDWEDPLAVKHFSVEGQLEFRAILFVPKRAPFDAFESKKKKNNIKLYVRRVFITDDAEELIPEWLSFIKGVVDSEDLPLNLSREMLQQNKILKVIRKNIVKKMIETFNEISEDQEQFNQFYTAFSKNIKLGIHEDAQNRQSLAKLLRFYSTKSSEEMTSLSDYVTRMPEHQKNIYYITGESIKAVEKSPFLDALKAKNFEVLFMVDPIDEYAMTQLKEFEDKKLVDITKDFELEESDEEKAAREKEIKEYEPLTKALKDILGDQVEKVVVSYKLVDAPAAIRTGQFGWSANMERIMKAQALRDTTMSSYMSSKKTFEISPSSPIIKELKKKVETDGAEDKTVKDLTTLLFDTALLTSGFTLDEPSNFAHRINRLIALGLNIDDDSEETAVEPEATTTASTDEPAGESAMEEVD
Chain of Glyceraldehyde-3-phosphate dehydrogenase (P04406 whole entry): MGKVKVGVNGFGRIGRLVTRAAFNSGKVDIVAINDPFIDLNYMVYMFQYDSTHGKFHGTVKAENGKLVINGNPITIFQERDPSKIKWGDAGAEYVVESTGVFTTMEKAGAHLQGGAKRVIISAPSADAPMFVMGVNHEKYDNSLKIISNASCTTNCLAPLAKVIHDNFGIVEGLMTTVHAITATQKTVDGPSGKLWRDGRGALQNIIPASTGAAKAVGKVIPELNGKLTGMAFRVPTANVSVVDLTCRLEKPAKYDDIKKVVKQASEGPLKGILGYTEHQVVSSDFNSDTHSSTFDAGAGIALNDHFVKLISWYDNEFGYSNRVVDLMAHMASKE

In the case of `O=C(c1cccs1)N(Cc1nc(O)c2c3c(sc2n1)CCCC3)C1CCCC1`, the IC50 (Vero [1]) is reported as 13.4 µM (active) and the CC50 (Vero [2]) is reported as > 25 µM (active).
With `CCOC(=O)c1ccc(-c2ccc3ncnc(NCc4ccc(C)o4)c3c2)o1` the AC50 [3] was 2.72 nM (active) and 93.6 nM (active).
In the case of `O=C(CC(=O)c1cccc([N+](=O)[O-])c1)Nc1ccccc1Cl`, the EC50 [4] is reported as > 150 µM (inactive), the EC50 [5] is reported as 0.524 µM (active) and the EC50 [6] is reported as > 180 µM (inactive). The EC50 [7] was > 160 µM (inactive).
For `CC(C)N1CCC(N2CCN(C3CCCCC3)CC2CCO)CC1` (centres undefined), the AC50 (Escherichia coli [8]) was 97 µM (active) and the AC50 (Escherichia coli [9]) was 16.8 µM (active).
With `COC(=O)CCn1nnc(-c2ccc(C(C)C)cc2)n1` the EC50 [10] was < 0.1 µM (active), the EC50 [11] was 0.251 µM (active) and the EC50 [12] was 2.39 µM (active). For the same compound, the IC50 [13] was > 100 µM (not active), the EC50 (cells) was 0.477 µM (active) and the EC50 [14] was < 0.1 µM (active). For the same compound, the EC50 [15] was < 0.1 µM (active), the EC50 (HT-1080) was > 50 µM (not active) and the EC50 [16] was 0.373 µM (active). The EC50 [17] was 16.2 µM (active), the IC50 (Jurkat [18]) was < 0.16 µM (active) and the IC50 [19] was > 80 µM (inactive). The AC50 [20] was < 0.26 µM (active), the AC50 [21] was < 0.26 µM (active) and the AC50 [22] was < 0.26 µM (active). For the same compound, the AC50 [23] was 0.379 µM (active).
In the case of `Cc1ccc2nsnc2c1NC(=O)c1ccc([N+](=O)[O-])o1`, the IC50 (HEK293 [24]) is reported as > 80 µM (inactive), the IC50 (Jurkat [25]) is reported as 22.7 µM (inactive) and the IC50 (HEK293 [26]) is reported as 37.9 µM (inactive).
For `CCCN(CCC)S(=O)(=O)c1ccc(C(=O)OCCN2C(=O)c3cccc4c(N5CCOCC5)ccc(c34)C2=O)cc1`, the AC50 (HeLa) was 57.8 µM (active), the AC50 (ORF 73) was 21.4 µM (active) and the IC50 [27] was > 64 µM (inactive). The AC50 (Keap1/Nrf2) was 7.75 µM (active) and the EC50 [28] was 6.32 µM (active).
In the case of `C[C@@H]1O[C@@H](O[C@@H]2C=C3CCC4C(CC[C@]5(C)[C@@H](c6ccc(=O)oc6)CC[C@]45O)[C@@]3(C)CC2)[C@H](O)[C@H](O)[C@H]1O` (some centres undefined), the AC50 [29] is reported as < 0.16 µM (active), the IC50 (Jurkat [18]) is reported as 1.66 µM (active) and the IC50 [19] is reported as > 80 µM (inactive). The CC50 (Vero [2]) was < 0.05 µM (active) and the AC50 (Paired box protein Pax-8) was < 0.26 µM (active).
For `COc1ccc2nc3ccccc3[n+]([O-])c2c1`, the AC50 (HeLa) was 119 µM (active), the AC50 (ORF 73) was 30.8 µM (active) and the AC50 (Keap1/Nrf2) was 8.81 µM (active). The EC50 [28] was 18.1 µM (active).
For `O=C(/C=C1\C(=O)Nc2ccccc21)/C=C1\C(=O)Nc2ccccc21`, the IC50 (Vero [1]) was > 25 µM (active), the CC50 (Vero [2]) was 20 µM (active) and the AC50 [30] was 9.5 µM (active). The AC50 [31] was 64.7 µM (active), the AC50 [32] was 11.7 µM (active) and the IC50 [33] was 1.55 µM (active). The IC50 (Beta Lactamase) was 28.6 µM (inactive).
With `COc1ccc(NC(=O)C/C(C)=N/NC(=O)C(=O)Nc2cccc(Cl)c2C)c(OC)c1` the AC50 (Escherichia coli [8]) was 16.3 µM (active) and the AC50 (Escherichia coli [9]) was 51.6 µM (active).
With `CC(C)c1ccc(C(NC(=O)C2CCCCC2)c2ccc3cccnc3c2O)cc1` (centres undefined) the IC50 (HEK293 [24]) was 44.9 µM (inactive), the IC50 (Jurkat [25]) was 2.94 µM (active) and the IC50 (HEK293 [26]) was 4.61 µM (active).
